Test results: paper PMC12064818, “A general assay platform to study protein pharmacology using ligand-dependent structural dynamics” (Nature Communications, 2025)

Biological target: T1, FLuc-C-HiBiT (Photinus pyralis, UniProt P08659)
T1 construct: firefly luciferase with C-terminal HiBiT tag, E. coli expressed
Test: biochemical
Conditions: enzyme activity, 10 uM ATP; read-out: IC50 or SDR50 (mM) / FLuc E

T1 sequence (P08659 whole entry, looked up): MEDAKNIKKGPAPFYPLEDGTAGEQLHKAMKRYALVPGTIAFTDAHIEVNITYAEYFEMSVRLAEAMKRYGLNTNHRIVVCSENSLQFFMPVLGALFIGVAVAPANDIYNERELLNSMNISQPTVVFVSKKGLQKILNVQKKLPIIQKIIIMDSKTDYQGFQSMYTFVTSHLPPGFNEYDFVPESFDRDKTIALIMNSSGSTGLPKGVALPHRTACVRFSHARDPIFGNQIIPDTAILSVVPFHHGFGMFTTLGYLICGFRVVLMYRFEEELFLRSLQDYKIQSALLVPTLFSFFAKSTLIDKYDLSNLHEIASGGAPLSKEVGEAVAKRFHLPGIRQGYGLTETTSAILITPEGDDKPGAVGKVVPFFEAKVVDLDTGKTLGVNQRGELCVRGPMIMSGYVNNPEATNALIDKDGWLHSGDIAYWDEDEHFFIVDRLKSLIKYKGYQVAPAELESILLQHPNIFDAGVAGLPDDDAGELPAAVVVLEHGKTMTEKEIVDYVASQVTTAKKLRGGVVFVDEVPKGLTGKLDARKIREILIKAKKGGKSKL

SMILES	IC50
Cc1ccc(-c2cc3c(=O)n(CCNC(=O)c4cccc(C#N)c4)ccn3n2)c(C)c1 [NCGC00456970-01]	0.00313 mM
Cc1ccc(-c2cc3c(=O)n(CCNC(=O)c4nn(C)c5ccccc45)ccn3n2)c(C)c1 [NCGC00456971-01]	0.00157 mM
Cc1ccc(-c2cc3c(=O)n(CCNC(=O)Cc4ccsc4)ccn3n2)c(C)c1 [NCGC00456972-01]	0.00624 mM
Cc1ccc(-c2cc3c(=O)n(CCNC(=O)c4nccc5ccccc45)ccn3n2)c(C)c1 [NCGC00456974-01]	0.00881 mM
COc1ccc(C(=O)NCCn2ccn3nc(-c4ccc(C)cc4C)cc3c2=O)c(C)c1 [NCGC00456977-01]	0.00495 mM
Cc1ccc(-c2cc3c(=O)n(CCNC(=O)c4cccc(Cl)c4)ccn3n2)c(C)c1 [NCGC00456978-01]	0.00394 mM
Cc1ccc(-c2cc3c(=O)n(CCNC(=O)c4ccco4)ccn3n2)c(C)c1 [NCGC00456979-01]	0.00989 mM
Cc1ccc(-c2cc3c(=O)n(CCNC(=O)c4ccccc4F)ccn3n2)c(C)c1 [NCGC00456982-01]	0.007 mM
Cc1ccc(-c2cc3c(=O)n(CCNC(=O)c4ccc(N(C)C)cc4)ccn3n2)c(C)c1 [NCGC00456986-01]	0.00313 mM
COc1ccccc1C(=O)NCCn1ccn2nc(-c3ccc(C)cc3C)cc2c1=O [NCGC00456987-01]	0.00989 mM
Cc1cc(C)cc(C(=O)NCCn2ccn3nc(-c4ccc(C)cc4C)cc3c2=O)c1 [NCGC00456988-01]	0.007 mM
COc1cccc(CC(=O)NCCn2ccn3nc(-c4ccc(C)c(C)c4)cc3c2=O)c1 [NCGC00457016-01]	0.0111 mM
COc1cccc(C(=O)NCCn2ccn3nc(-c4ccc(C)c(C)c4)cc3c2=O)c1OC [NCGC00457018-01]	0.00785 mM
Cc1ccc(-c2cc3c(=O)n(CCNC(=O)c4ccoc4)ccn3n2)cc1C [NCGC00457019-01]	0.00989 mM
Cc1ccc(-c2cc3c(=O)n(CCNC(=O)c4cccc5[nH]ccc45)ccn3n2)cc1C [NCGC00457046-01]	0.00785 mM
COc1cccc(-c2cc3c(=O)n(CCNC(=O)C4CCN(C(C)=O)CC4)ccn3n2)c1 [NCGC00457070-01]	0.0124 mM
COc1cccc(-c2cc3c(=O)n(CCNC(=O)c4ccccc4Cl)ccn3n2)c1 [NCGC00457089-01]	0.00881 mM
Cc1noc(-c2cccn3c(CNC(=O)c4ccc(C(C)(C)C)cc4)nnc23)n1 [NCGC00457512-01]	0.00989 mM
CCCn1c(C)cnc1CC1CCN(C(=O)C2(c3ccc(OC)cc3)CC2)C1 (centres unmarked) [NCGC00464172-01]	> 0.03 mM
O=C(O)[C@@H]1CN(Cc2ccccc2)C[C@@H]1C(=O)N1CCc2ccccc21 [NCGC00464394-01]	> 0.03 mM

SMILES	IC50
COc1ccc(C(=O)N2CCCC(c3nc(-c4ccccc4)no3)CCNC(=O)CC2)c(OC)n1 (centres unmarked) [NCGC00465834-01]	0.0111 mM
Cc1cnc(CC2CCCN(C(=O)CCc3c[nH]c4ccccc34)C2)n1C(C)C (centres unmarked) [NCGC00469687-01]	> 0.03 mM
Cc1ccc(NC(=O)Nc2cccn3nc(C)nc23)cc1 [NCGC00470444-01]	0.0111 mM
CCOCC(=O)N1c2ccccc2CC1c1noc(C(C)C)n1 (centres unmarked) [NCGC00471496-01]	0.0124 mM
CC(C)c1nc(C2Cc3ccccc3N2C(=O)NC2CCCC2)no1 (centres unmarked) [NCGC00471499-01]	0.014 mM
O=C(C1CCC1)N1c2ccccc2CC1c1noc(C2CCOCC2)n1 (centres unmarked) [NCGC00471502-01]	0.00989 mM
O=C(N1c2ccccc2CC1c1noc(C2CCOCC2)n1)C1(c2ccccc2)CC1 (centres unmarked) [NCGC00471505-01]	0.0124 mM
O=C(NC1CCCC1)N1c2ccccc2CC1c1noc(C2CCOCC2)n1 (centres unmarked) [NCGC00471510-01]	0.0111 mM
COc1cccc(CNC(=O)N2c3ccccc3CC2c2noc(C3CCOCC3)n2)c1 (centres unmarked) [NCGC00471511-01]	0.00989 mM
Cc1ccc(-c2nnc(C3CN(C(=O)c4sc(C)nc4C)CC34CCOCC4)o2)cc1 (centres unmarked) [NCGC00471668-01]	> 0.03 mM
O=C1CCC2(C(=O)NCCc3ccccc3)CCCC=C2N1c1ccccc1 (centres unmarked) [NCGC00472135-01]	0.0157 mM
COc1cccc(-c2nc3ccc(-c4ccc5c(c4)OCO5)cc3o2)c1OC [NCGC00474498-01]	0.00248 mM
Cc1ccc(CN2C(=O)OC(c3cccc(NC(=O)c4ccc(C)cc4)c3)C2C(=O)NCC(C)C)cc1 (centres unmarked) [NCGC00475004-01]	0.00881 mM
CCc1ccc(NC(=O)N2CCCC(c3noc(COc4ccccc4)n3)C2)cc1 (centres unmarked) [NCGC00475587-01]	0.00279 mM
Nc1nc2c(nc(O)n2[C@H]2C[C@H](O)[C@@H](CO)O2)c(=O)[nH]1 [NCGC00475978-01]	> 0.03 mM
COc1ccc(C2=NOC3(CCN([S+](=O)([O-])c4cccs4)C3)C2)cc1 (centres unmarked) [NCGC00476604-01]	> 0.03 mM
O=C1CC2(CCN(CC3CC3)CC2)Oc2ccccc21 [NCGC00476832-01]	0.018 mM
O=C1CC2(CCN(CC3CC3)CC2)Oc2cc(Cl)ccc21 [NCGC00476866-01]	0.018 mM
O=C(Nc1cc(Cl)cc(Cl)c1)c1ccn2nccc2c1 [NCGC00477139-01]	0.018 mM

Now from value to compound:

IC50	SMILES
0.0111 mM	CCc1nnc(CC2CCN(C(=O)Nc3ccc4c(c3)OCCO4)CC2)[nH]1 [NCGC00458299-01]
0.00989 mM	O=C(Nc1ccc2c(c1)OCCO2)N1CC(c2nc(CCOCC3CC3)no2)C1 [NCGC00464361-01]
0.007 mM	Cc1cccc(OCCc2noc(C3CN(C(=O)Nc4ccc5c(c4)OCCO5)C3)n2)c1 [NCGC00464383-01]
0.00351 mM	O=C1NCCCCCCN(C(=O)Nc2ccc3c(c2)OCCO3)[C@H]2CCC[C@@H]12 [NCGC00465105-01]
0.0176 mM	O=C1CC(c2ccccc2)N(C(=O)CNC(=O)Nc2ccc3c(c2)OCCO3)CCCCCN1 (centres unmarked) [NCGC00465553-01]
0.00881 mM	O=C1NCCCCCCN(C(=O)Nc2ccc3c(c2)OCCO3)[C@H]2CCCC[C@@H]12 [NCGC00466580-01]
0.00989 mM	CN1CCCCCCN(C(=O)Nc2ccc3c(c2)OCCO3)CCC1=O [NCGC00466735-01]
0.0111 mM	O=C1NCCCCCCN(Cc2ccncc2)[C@@H]2CN(C(=O)Nc3ccc4c(c3)OCCO4)CC[C@H]12 [NCGC00467232-01]
0.0111 mM	Cc1cnc(CCNC(=O)Nc2ccc3c(c2)OCCO3)n1C1CC1 [NCGC00469576-01]
0.0124 mM	Cc1cnc(CCNC(=O)Nc2ccc3c(c2)OCCO3)n1Cc1ccc(F)cc1 [NCGC00469838-01]
0.00989 mM	Cn1c(=O)c2ccnn2c2ccc(C(=O)Nc3ccc4c(c3)OCCO4)cc21 [NCGC00470050-01]
0.0124 mM	CCNc1cc(N2CCC(CCC(=O)Nc3ccc4c(c3)OCCO4)CC2)ncn1 [NCGC00470231-01]
0.00989 mM	CCCNc1cc(N2CCC(CCC(=O)Nc3ccc4c(c3)OCCO4)CC2)ncn1 [NCGC00470245-01]
0.00989 mM	CC(C)n1cc2cc(C(=O)Nc3ccc4c(c3)OCCO4)sc2c1 [NCGC00470606-01]
0.00989 mM	CN1CCCN(C(=O)Nc2ccc3c(c2)OCCO3)c2ccccc21 [NCGC00470832-01]
0.00176 mM	CCNC(=O)C1C(c2cccc(NC(=O)c3ccc(C)cc3)c2)OC(=O)N1Cc1ccc(F)cc1 (centres unmarked) [NCGC00473984-01]
0.00394 mM	CCNC(=O)C1C(c2cccc(NC(=O)c3ccc(OC)cc3)c2)OC(=O)N1Cc1ccc(C)cc1 (centres unmarked) [NCGC00474207-01]
0.00442 mM	CCCNC(=O)C1C(c2cccc(NC(=O)c3ccc(C)cc3)c2)OC(=O)N1Cc1ccc(C)cc1 (centres unmarked) [NCGC00475006-01]
0.0111 mM	O=C(Nc1ccc2c(c1)OCCO2)N1CCCC(c2nc(C3CCOCC3)no2)C1 (centres unmarked) [NCGC00475594-01]
0.018 mM	O=C(Nc1ccc(F)cc1)c1cc2cccnn2n1 [NCGC00477081-01]
